Experimental data published in publication PMC7641127, “MCL1 binds and negatively regulates the transcriptional function of tumor suppressor p73” (Cell Death & Disease, 2020).
Where two headings read alike, the source gives them in different places. One block for each compound: values may come before it. No end group written: not given here.

Legend:
recombinant MCL1 [1] = target: T1, recombinant MCL1 (Homo sapiens, UniProt Q07820); assay: Competitive fluorescence polarization assay (FPA), MCL1 with F-BAK probe; assay type: binding
T1 construct: made in house; host or cells: E. coli BL21 (DE3)
T1 sequence (Q07820 whole entry): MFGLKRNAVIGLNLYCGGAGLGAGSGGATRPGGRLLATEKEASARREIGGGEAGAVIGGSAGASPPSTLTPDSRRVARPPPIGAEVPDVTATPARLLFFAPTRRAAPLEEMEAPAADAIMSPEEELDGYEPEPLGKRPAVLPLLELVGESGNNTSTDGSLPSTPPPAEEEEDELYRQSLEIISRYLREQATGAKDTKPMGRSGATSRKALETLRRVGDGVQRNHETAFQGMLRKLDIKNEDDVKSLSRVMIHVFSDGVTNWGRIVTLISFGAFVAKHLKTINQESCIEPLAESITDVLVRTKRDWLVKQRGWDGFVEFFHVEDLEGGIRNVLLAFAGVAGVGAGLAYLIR
Description: (§1) We next sought to determine which core domain, the DBD or the TD, of p73 mediates binding to MCL1. […] Therefore, we expressed and purified recombinant p73DBD and tested its ability to associate with MCL1 using competitive fluorescence polarization assay (FPA) analysis and NMR chemical shift perturbation (CSP) studies (Fig. 2a, Supplementary Fig. 1). FPA is a biochemical assay that can either determine the binding constant between a recombinant protein and a fluorescently labeled small molecule or peptide (i.e. direct FPA as a measure of KD) or it can determine the concentration in which an unknown binding partner can compete with bound fluorescently labeled ligand (competitive FPA as a measure of IC50).
In a flat-bottom, untreated black 96-well microplate (ThermoScientific), 80 μL recombinant protein is incubated with 10 μL 10× unlabeled peptide or small molecule inhibitor shaking at 300 rpm for 20 min to allow for binding. Once complete, 10 μL of 10× FITC-peptide is added per well. The plate is covered with an opaque lid to shake for an additional 40 min. After 1 h incubation is complete, the plate is read using the FP-Fluorescein setting (1.0 s, CW lamp filter—F485, emission filter, F535) on a Perkin Elmer Victor X5 plate reader. The buffer used for all assays is 1× PBS, pH 7.4. All experiments were completed in technical and biological triplicate. All data plotted in Fig. 2 is one representative assay in technical triplicate.

PC-3 cells [2] = assay: Annexin V/PI staining with FACS; assay type: cell-based, human; settings: N=4
Protocol: Cells were seeded in a six-well plate and treated through various treatments to modulate MCL1 or p73 expression as they were in previous experiments. After the 24 or 48 h treatment, cells were collected through trypsin dissociation and washed twice with sterile DPBS. Cell number was counted on a BioRad Automated Cell Counter. After final wash, cells were pelleted at 1000×g for 10 min. The cell pellet was resuspended in 1× Annexin V binding buffer (BD Pharmingen, 556454) and 5 × 10^5 cells were transferred to a FACS tube containing 5 μL propidium iodide (PI) staining solution (BD Pharmingen, 51-66211E) and 5 μL FITC-Annexin V (BD Pharmingen, 556419). Cells were incubated for 15 min in the dark. FACS was collected on a BD LSRFortessa and analyzed using FlowJo v10. Compensation controls used for analysis include unstained cells and cells stained for each individual fluorophore (FITC-Annexin V and Cy5-PI). Gating strategy eliminated cell debris and doublets through forward and side scatter plots.
Supplemental Fig 3. […] Cells were stained with Annexin V and Propidium Iodide (PI) to determine the apoptotic cell population. […] All plots shown here are representative plots of the data set, N=4.

PC-3 cells [3] = assay: TaqMan RT-qPCR of p73 target genes in PC-3; assay type: cell-based, human; settings: normalized to GAPDH, biological and technical triplicate
Protocol: All RT-qPCR reactions were performed in biological triplicate. A master mix for each target or housekeeping gene was made with 15 μL RNAse-free water, 3 μL 20× RT-qPCR Primer Mix (ThermoScientific), 12 μL 25 ng/μL cDNA, and 30 μL TaqMan Universal Master Mix II, with UNG (Applied Biosystems, 2020-02-29). The mix was aliquoted out 20 μL/well in technical triplicate with the final concentration of cDNA at 100 ng/reaction. PCR reactions were performed on an Applied Biosystems ViiA 7 Real-Time PCR System for 40 cycles starting at 25 °C. Each cycle is 50 °C for 2 min, 95 °C for 10 min, and 15 s, and 60 °C for 1 min. Temperature shifts at 1.6 °C/s. All data are collected and analyzed using Applied Biosystems QuantStudio Real-Time PCR Software. All target genes analyzed were normalized to GAPDH. All primers had FAM-MGB probes. All TaqMan primers were ordered from ThermoFisher Scientific with the target gene and Assay ID included: CDKN2A/p21 (Hs00355782_m1), PMAIP1/NOXA (Hs00560402_m1), GADD45A (Hs00169255_m1), BBC3/PUMA (Hs00248075_m1), GAPDH (Hs02758991_g1).
Four known p73 target genes were analyzed by TaqMan RT-qPCR. After a baseline was established, cells were treated with b an siRNA targeting MCL1 or c 2 μM MCL1 inhibitor A1210477. […] All experiments were performed in biological and technical triplicate. Bar graphs shown with SEM of one representative assay. […]

H1299 cells = assay: TaqMan RT-qPCR of p73 target genes in H1299; assay type: cell-based, human; settings: 24 h, normalized to GAPDH, biological and technical triplicate
Protocol: Four known p73 target genes were analyzed by TaqMan RT-qPCR. After a baseline was established, H1299 cells were treated with b an siRNA targeting MCL1 (48 h) or c 2 μM MCL1 inhibitor A1210477 (24 h). […] All experiments were performed in biological and technical triplicate. Bar graphs shown with SEM of one representative assay. A Student’s t-test was applied to each target gene for each treatment for statistical analysis, p-values: *p < 0.05, **p < 0.01, ***p < 0.001, ****p < 0.0001.
RNA was purified from human cancer cell lines for RT-qPCR with the SurePrep TrueTotal RNA Purification Kit (Fisher BioReagents, BP2800-50) by the manufacturer’s protocol. The final concentration of purified RNA was measured using a Nanodrop 2000c spectrophotometer. Once RNA concentration was determined, a single step cDNA synthesis reaction was made in TempAssure PCR 8-Tube Strips (USA Scientific, 1402-2500) in technical duplicate as follows: 100 ng RNA, 16 μL nuclease-free water (Ambion, 1512103), and 4 μL qScript cDNA SuperMix (Quanta BioSciences Inc., 84034). […] Concentration was determined after the cDNA synthesis on the Nanodrop 2000c spectrophotometer. cDNA was diluted to 25 ng/μL into Molecular Biology Grade Water (Corning, 46-000-CM) and stored at −20 °C for future use. […]
All RT-qPCR reactions were performed in biological triplicate. […] All target genes analyzed were normalized to GAPDH. […]

recombinant MCL1 [4] = target: T1, recombinant MCL1; assay: Direct FPA of FITC-labeled peptides with MCL1; assay type: binding; settings: N-terminally FITC-labeled peptide with recombinant MCL1; 1x PBS pH 7.4; 30 min; at or approaching limit of detection of probe
Description: as §1
The buffer used for all assays is 1× PBS, pH 7.4. All experiments were completed in technical and biological triplicate.

15N MCL1 = assay: 2D [15N,1H]-HSQC NMR chemical shift perturbation of 15N MCL1; assay type: binding, human; settings: 50 μM 15N MCL1 + 200 μM ligand; 1x PBS pH 6.8; significant CSP = >2SD above mean (0.046 ppm)
Protocol: Fig. 3 P73 binds to the BH3-binding groove of MCL1. a 2D [^15N, ^1H]-HSQC spectra of 50 μM ^15N MCL1 + 2% DMSO (black contours) or 50 μM ^15N MCL1 + 200 μM p73_23mer TD-derived peptide (red contours). Amino acids with significant CSP (Δδ > 0.046 ppm: G217, F228, N239, D241, D242, H252, I264, V265, L267, I268, E292, L298, V299, T301, D304, and H320) or residues that were unable to be identified in the bound spectra (V216, G219, V220, V243, […], S247, R263, G271, R303, K308, and F315) are labeled for reference. b CSP quantified as a function of Δδ ppm for each amino acid residue. The first dotted line indicates 1SD from the mean (0.023) and the solid line indicates 2SD from the mean (0.046). Amino acids with significant CSP were identified as >2SD above the mean (blue). Amino acids that were unable to be identified in the bound spectra were set to −0.01 to differentiate them from peaks with no CSP (red). […]
The NMR HSQC spectra were acquired using a Bruker 600 MHz magnet at the Central Alabama High Field NMR Facility. […] The resulting spectra were analyzed using Computer-Aided Resonance Assignment (CARA) and the peak lists were exported to Microsoft Excel for the CSP quantification and calculation of the mean and standard deviation. […]
Supplemental Fig 1. […] The two cut offs represent the 1 and 2 SD cut offs determined through the 50 µM 15N hMCL1 + 200 µM p7323mer spectra in Fig 2.

PC-3 cells [5] = assay: Cellular fractionation and western blot after cisplatin; assay type: cell-based, human; settings: low dose (printed 5 mM), 24 hours, vs 0.5% DMF, western blot
Protocol: Cellular localization was performed using the NE-PER Nuclear and Cytoplasmic Extraction Reagent Kit (ThermoScientific, 78833) per the manufacturer’s protocol. The western blot quantification analysis was completed in the Image Lab 6.0.1 software using the Adjusted Volume tool. All assays were completed in biological triplicate with one representative image for each treatment group and/or cell line.
Cells were fractionated in cytosolic and nuclear compartments. Protein localization was analyzed through Western Blot analysis. Lamin A/C and GAPDH were used for fractionation controls. Band quantifications using the adjusted volume for each individual band are below for reference. All paired samples are normalized to the WCL treated with DMF alone.

[6] = competitive FPA, 50 nM recombinant MCL1, 10 nM F-BAK, unlabeled peptide titration, 1x PBS pH 7.4, 20 min pre-incubation + 40 min, mean ± SD, biological and technical triplicate, read-out: FPA IC50

IC50 (recombinant MCL1 [1]; [6]): > 10 µM
Compound: DEDTYYLQVR-NH2 [β1]

IC50 (recombinant MCL1 [1]; [6]): > 10 µM
Compound: VPQPLVDSYRQQQQLLQR-NH2 [α2]

More lines, now with the values behind:

Compound: Cc1nn(C)c(COc2ccc(N3CCN(S(=O)(=O)N(C)C)CC3)cc2)c1-c1cccc2c(CCCOc3cccc4ccccc34)c(C(=O)O)n(CCN3CCOCC3)c12 [A1210477]
IC50 (recombinant MCL1 [1]): 2.59 µM
Apoptotic induction, Annexin V/PI (PC-3 cells [2]; 2 μM, 24 hours, vs 0.5% DMSO): no increase in apoptotic induction
p73 target gene expression (p21, NOXA, GADD45, PUMA) (PC-3 cells [3]; 2 μM): significant increases in gene expression in at least three of the four p73 target genes
p73 target gene expression (p21, NOXA, GADD45, PUMA) (H1299 cells; 2 μM): significant increases in gene expression in at least three of the four p73 target genes

Compound: GRENFEILMKLKESLELMELVPQ-NH2 [p73_23mer]
IC50 (recombinant MCL1 [1]; competitive FPA, 50 nM recombinant MCL1, 10 nM F-BAK, unlabeled peptide titration, 1x PBS pH 7.4, 20 min pre-incubation + 40 min, mean ± SD, biological and technical triplicate, SD, read-out: FPA IC50): 0.982 ± 0.195 µM
Kd (recombinant MCL1 [4]): ≤ 0.005 µM

Compound: p73DBD: recombinant p73 DNA-binding domain alone, amino acids 112–311
Association with MCL1 in competitive FPA (recombinant MCL1 [1]; 50 nM recombinant MCL1, 10 nM F-BAK, titration of unlabeled protein): Neither NMR nor competitive FPA analysis exhibited significant changes
Chemical shift perturbation of MCL1 (15N MCL1): No amino acids in this spectra exhibited significant shifts

Compound: N.N.[Cl][Pt][Cl] [cisplatin]
Apoptosis, Annexin V/PI, positive control (PC-3 cells [2]; 50 µM): significant increase in apoptosis
p73 target gene expression (p21, NOXA, GADD45, PUMA) (PC-3 cells [3]; 5 μM, 24 h): statistically significant increases in expression in at least three of the four p73 target genes
p73 target gene expression (p21, NOXA, GADD45, PUMA) (H1299 cells; 10 μM): statistically significant increases in expression in at least three of the four p73 target genes
MCL1 protein levels in cytoplasmic and nuclear fractions (PC-3 cells [5]): increase MCL1 levels in both the cytoplasmic and nuclear compartments
